# Measurements taken from PubChem BioAssay AID256 (DTP/NCI, 2004).
# Where “and” joins values, the source holds several entries; their conditions need not be identical. Equal values may be shown once. Toxic doses and inconclusive results are not listed.
# System: CD2F1 mice, L1210 leukemia ip, survival T/C
# Experiment: NCI In Vivo Anticancer Drug Screen. Data for tumor model L1210 Leukemia (intraperitoneal) in CD2F1 (CDF1) mice
# Conditions: endpoint: mean survival time, higher = longer survival
# Procedure, shortened: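 Activity against a transplanted murine tumor was judged by comparing the compound group with a vehicle group. The outcome in the treated animals was divided by that in the controls.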
# [1] = dose: 100.0 mg/kg/injection, schedule: Q04DX003 (ip), vehicle: saline with Tween-80
# [2] = dose: 100.0 mg/kg/injection, schedule: Q04DX002 (ip), vehicle: saline with Tween-80
# [3] = dose: 200.0 mg/kg/injection, schedule: Q04DX002 (ip), vehicle: saline with Tween-80
# [4] = dose: 400.0 mg/kg/injection, schedule: Q04DX002 (ip), vehicle: saline with Tween-80
# [5] = dose: 25.0 mg/kg/injection, schedule: Q01DX009 (ip), vehicle: Klucel (hydroxypropylcellulose) (HPC)
# [6] = dose: 50.0 mg/kg/injection, schedule: Q01DX009 (ip), vehicle: Klucel (hydroxypropylcellulose) (HPC)
# [7] = dose: 100.0 mg/kg/injection, schedule: Q01DX009 (ip), vehicle: Klucel (hydroxypropylcellulose) (HPC)
smiles,measurement,setting,value
OCCNC(=S)Nc1ccccc1,T/C,"dose: 7.5 mg/kg/injection, schedule: Q01DX009 (ip), vehicle: saline",97 % of control
same,T/C,"dose: 15.0 mg/kg/injection, schedule: Q01DX009 (ip), vehicle: saline",95 % of control
same,T/C,"dose: 25.0 mg/kg/injection, schedule: Q04DX003 (ip), vehicle: saline with Tween-80",98 % of control
same,T/C,"dose: 30.0 mg/kg/injection, schedule: Q01DX009 (ip), vehicle: saline",89 % of control
same,T/C,"dose: 50.0 mg/kg/injection, schedule: Q04DX003 (ip), vehicle: saline with Tween-80",101 % of control
same,T/C,[1],100 % of control
CC(Nc1ccccc1)C(=O)N1CCC(Nc2ccccc2)CC1 (configuration not stated),T/C,[2],94 % of control
same,T/C,[3],94 % of control
same,T/C,[4],90 % of control
CCc1ccc(C2=C(O)C(=O)C(c3ccccc3)=C(O)C2=O)cc1,T/C,"dose: 3.12 mg/kg/injection, schedule: Q01DX009 (ip), vehicle: Klucel (hydroxypropylcellulose) (HPC)",97 % of control
same,T/C,"dose: 6.25 mg/kg/injection, schedule: Q01DX009 (ip), vehicle: Klucel (hydroxypropylcellulose) (HPC)",100 % of control
same,T/C,"dose: 12.5 mg/kg/injection, schedule: Q01DX009 (ip), vehicle: Klucel (hydroxypropylcellulose) (HPC)",100 % of control
same,T/C,[5],97 % of control
same,T/C,[6],100 % of control
same,T/C,[7],95 % of control
O=C(C(=O)c1ccccc1)c1ccccc1,T/C,"dose: 100.0 mg/kg/injection, schedule: Q01DX009 (ip), vehicle: saline",100 % of control
same,T/C,"dose: 200.0 mg/kg/injection, schedule: Q01DX009 (ip), vehicle: saline",101 % of control
same,T/C,"dose: 400.0 mg/kg/injection, schedule: Q01DX009 (ip), vehicle: saline",108 % of control
CC1CCCN(CCSSCCN2CCCC(C)C2)C1 (configuration not stated),T/C,"dose: 12.5 mg/kg/injection, schedule: Q01DX009 (ip), vehicle: saline with Tween-80",104 % of control
same,T/C,"dose: 12.5 mg/kg/injection, schedule: Q04DX003 (ip), vehicle: saline sonified",97 % of control
same,T/C,"dose: 25.0 mg/kg/injection, schedule: Q01DX009 (ip), vehicle: saline with Tween-80",96 % of control
same,T/C,"dose: 25.0 mg/kg/injection, schedule: Q04DX003 (ip), vehicle: saline sonified",98 % of control
same,T/C,"dose: 50.0 mg/kg/injection, schedule: Q01DX009 (ip), vehicle: saline with Tween-80",95 % of control
same,T/C,"dose: 50.0 mg/kg/injection, schedule: Q04DX003 (ip), vehicle: saline sonified",103 % of control
CCSC(C(O)C(O)C(O)C(O)CO)n1cnc2c(=S)nc[nH]c21 (configuration not stated),T/C,"dose: 25.0 mg/kg/injection, schedule: Q01DX005 (ip), vehicle: water",94 % of control
same,T/C,"dose: 50.0 mg/kg/injection, schedule: Q01DX005 (ip), vehicle: water",97 % of control
same,T/C,"dose: 100.0 mg/kg/injection, schedule: Q01DX005 (ip), vehicle: water",96 % of control
same,T/C,"dose: 177.0 mg/kg/injection, schedule: Q01DX009 (ip), vehicle: saline with Tween-80",107 % of control
same,T/C,"dose: 200.0 mg/kg/injection, schedule: Q01DX005 (ip), vehicle: water",96 % of control
same,T/C,"dose: 265.0 mg/kg/injection, schedule: Q01DX009 (ip), vehicle: saline with Tween-80",102 % of control
same,T/C,"dose: 600.0 mg/kg/injection, schedule: Q01DX009 (ip), vehicle: saline with Tween-80",150 % of control
O=C(O)CCc1ccccc1-c1ccccc1,T/C,"dose: 50.0 mg/kg/injection, schedule: Q04DX002 (ip), vehicle: saline with Tween-80",105 % of control
same,T/C,[2],96 % of control and 97 % of control
same,T/C,[3],103 % of control and 105 % of control
same,T/C,[4],100 % of control
CCC1(C)C(C#N)C(=O)NC(=O)C1C#N (configuration not stated),T/C,"dose: 50.0 mg/kg/injection, schedule: Q01DX009 (ip), vehicle: saline sonified",96 % of control
same,T/C,"dose: 100.0 mg/kg/injection, schedule: Q01DX009 (ip), vehicle: saline sonified",90 % of control
same,T/C,[1],100 % of control
same,T/C,"dose: 200.0 mg/kg/injection, schedule: Q04DX003 (ip), vehicle: saline with Tween-80",100 % of control
CCCCCCCCCc1nc(N)nc(NCCCC)n1,T/C,[5],101 % of control
same,T/C,[6],112 % of control
same,T/C,[7],108 % of control
